Results on three molecules are retold here after PMC10487517, “Impacts of Halogen Substitutions on Bisphenol A Compounds Interaction with Human Serum Albumin: Exploring from Spectroscopic Techniques and Computer Simulations” (International Journal of Molecular Sciences, 2023).

Broadly, the Kd is the free concentration of one partner at which half of the binding sites on the other are occupied at equilibrium, for simple one-to-one binding. High values mean a looser complex, low ones a tighter complex.

Assay [1] has as its target T1, HSA (Homo sapiens, UniProt P02768).
T1 construct: HSA and Tris were obtained from Sigma-Aldrich, St. Louis, MI, USA; purchased Sigma-Aldrich
The following applies: level of the Ka value; cited from earlier work.

Assay [2] concerns the target T1, HSA. In words: Site-specific competitive experiment (fluorescence) with site markers. The format is binding. To be noted: Ka, with Digoxigenin, [Ligands]/[Site Marker] 1:1; room temperature; n = 3.
In assay [3] the target is T1, HSA. In words: Circular dichroism spectroscopy, HSA secondary structure (CONTINLL). The following applies: [HSA] = [ligand] = 1.0 × 10^−6 M; for β-Sheet: free HSA 7.7; for β-Turn: free HSA 14.1; for Random Coil: free HSA 26.9; for α-Helix: free HSA 51.4. From the text:
The concentration of HSA and the ligands was set as 1.0 × 10^−6 M. The instrumental parameters were set as follows: path length of 1 mm and scanning speed of 100 nm min^−1.
A general note: Circular dichroism is widely used to follow secondary structure.

The target of assay [4] is T1, HSA. Description: Site-specific competitive experiment (fluorescence) with site markers. It counts as binding. To be noted: for Kd: Ka, room temperature, n = 3; for primary binding site on HSA: site-marker competition. On the procedure: The site-specific competitive experiment was conducted following the methodology described in the literature, using […], ibuprofen, and phenylbutazone as site-specific probes. First, a 1:1 complex of the site-specific probe with HSA was prepared in the buffer solution. […] This experiment was conducted under the same test conditions as the thermodynamic experiment, except at room temperature.

Assay [5] has as its target T1, HSA. Description: Fluorescence quenching / fluorescence–thermodynamic experiment with HSA. It counts as binding. The following applies: for Ksv: Stern–Volmer quenching constant, Tris-HCl pH 7.4; for Kd: Ka, binding constant, double logarithmic equation; for ∆H: enthalpy change of binding; for ∆H / ∆S: from Ka at 298, 303, 310 K; for ∆S: entropy change of binding; for fluorescence quenching mechanism: from Kq and trend of Ksv with temperature; for main binding forces: from signs of ΔH and ΔS. On the procedure: Prior to taking steady-state fluorescence measurements, the HSA and ligand mixture solution was given 2 min to equilibrate.
To account for the ligand concentration in the study system, which was much lower than the 10^−5 M level, the inner-filter effect of the ligand was neglected. The Stern–Volmer equation and double logarithmic equation (Equations (1)–(3)) were used to analyze the data of fluorescence spectra. Thermodynamic parameters were obtained using Equation (4) to determine the driving forces in the binding process. […] In addition, R and T are the gas constant at room temperature and the temperature in Kelvin, respectively.

Assay [6] has as its target T1, HSA. In words: Three-dimensional fluorescence spectra of HSA with ligand. To be noted: [HSA] = [ligand] = 1.0 × 10^−6 M; for Peak 1 ∆λ: free HSA 62; for Peak 2 ∆λ: free HSA 109; for Peak 2 λex/λem: free HSA 225/334; for Peak 1 λex/λem: free HSA 279/341; for Peak 1 F: free HSA 368.7; for Peak 2 F: free HSA 801.7; for change of Stokes shift of peak 2: versus free HSA.
The mark [7] stands for this setting: Control group, [Ligands]/[Site Marker] 1:0.
Where [8] appears, read: with Ibuprofen, [Ligands]/[Site Marker] 1:1.
[9] abbreviates: with Phenylbutazone, [Ligands]/[Site Marker] 1:1.
[10] abbreviates: 298 K, quenching rate constant, Kq=Ksv/τ0, τ0 6.30 ns.
[11] abbreviates: 303 K, quenching rate constant, Kq=Ksv/τ0, τ0 6.30 ns.
The mark [12] stands for this setting: 310 K, quenching rate constant, Kq=Ksv/τ0, τ0 6.30 ns.
Setting [13] is: compared with maximum scattering collision quenching rate constant for dynamic quenching.

T1 sequence (P02768 25-609): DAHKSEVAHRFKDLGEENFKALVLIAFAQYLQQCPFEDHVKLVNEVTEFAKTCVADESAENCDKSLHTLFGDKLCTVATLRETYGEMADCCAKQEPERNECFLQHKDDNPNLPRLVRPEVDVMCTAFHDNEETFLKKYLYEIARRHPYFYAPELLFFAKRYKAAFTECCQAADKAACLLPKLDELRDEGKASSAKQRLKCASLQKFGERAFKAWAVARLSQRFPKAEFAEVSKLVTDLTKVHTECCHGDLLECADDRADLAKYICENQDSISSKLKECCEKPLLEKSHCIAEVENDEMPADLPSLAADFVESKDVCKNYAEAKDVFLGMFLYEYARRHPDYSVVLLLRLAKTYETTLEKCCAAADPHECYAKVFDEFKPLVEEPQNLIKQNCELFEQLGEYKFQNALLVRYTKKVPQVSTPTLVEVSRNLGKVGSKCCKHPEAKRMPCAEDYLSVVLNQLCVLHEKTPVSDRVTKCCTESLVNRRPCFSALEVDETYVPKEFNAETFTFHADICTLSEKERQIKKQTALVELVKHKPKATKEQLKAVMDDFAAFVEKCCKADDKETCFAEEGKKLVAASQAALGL

Take `CC(C)(c1ccc(O)cc1)c1ccc(O)cc1` [BPA, Bisphenol A]: the Ka in assay [1] is around 1000 M⁻¹.
`CC(C)(c1cc(Br)c(O)c(Br)c1)c1cc(Br)c(O)c(Br)c1` [TBBPA, tetrabromobisphenol A]: the dissociation constant Kd in assay [2] was 743 nM. Also, in assay [3], the β-Sheet is 7.3%, the β-Turn was found to be 14.7%, the “Random Coil” value is recorded as 29.8% and the α-Helix was 48.2%. Besides, in assay [4] (setting [7]), binding was characterised by a dissociation constant (Kd) of 734 nM. Binding in assay [4] (setting [8]) was put at a Kd of 740 nM. For the same molecule, the Kd in assay [4] (setting [9]) is 1230 nM. In assay [4], the “primary binding site on HSA” value is given as “site I”. Besides, in assay [5] (298 K), the “∆G” value is -33.08 kJ/mol and the equilibrium dissociation constant (Kd) is 1.6 µM. In addition, the Kq in assay [5] (setting [10]) is 1.210 10^14 M^−1·s^−1. In assay [5] (303 K), the “∆G” value is -33.95 kJ/mol, the Ksv is 7.534 10^5 M^−1 and the Kd is 1.39 µM. Besides, in assay [5] (setting [11]), the Kq was 1.211 10^14 M^−1·s^−1. For the same molecule, in assay [5] (310 K), the “∆G” value is -35.18 kJ/mol, the Ksv was 7.627 10^5 M^−1 and the dissociation constant Kd was 1.18 µM. Moreover, the Kq in assay [5] (setting [12]) is on record as 1.226 10^14 M^−1·s^−1. Besides, the Kq result in assay [5] (setting [13]) is reported as “greater than 2.0 × 10^10 M^−1·s^−1”. Also, in assay [5], the “∆H” value was 19.19 kJ/mol, the “∆S” value came out at 175.4 J·moL^−1·K^−1, the fluorescence quenching mechanism entry was “static quenching mechanism” and the main binding forces result is reported as “hydrophobic interactions”. In assay [6], the “Peak 1 ∆λ” value is 59 nm, the “Peak 2 ∆λ” value was 103 nm, the “Peak 2 λex/λem” value is 225/328 and the “Peak 1 λex/λem” value is 279/338. Further, in assay [6], the “Peak 1 F” value is given as 254.0, the “Peak 2 F” value is given as 575.5 and the “change of Stokes shift of peak 2” value worked out at 6 nm.
Take `CC(C)(c1cc(Cl)c(O)c(Cl)c1)c1cc(Cl)c(O)c(Cl)c1` [TCBPA, tetrachlorobisphenol A]: in assay [2], the Kd is 1280 nM. Further, in assay [3], the β-Sheet is 8.2%, the β-Turn is 14.2%, the “Random Coil” value was found to be 27.2% and the α-Helix is given as 50.4%. The same molecule had a Kd in assay [4] (setting [7]) of 1370 nM. The same molecule had a Kd in assay [4] (setting [8]) of 1320 nM. In assay [4] (setting [9]), this molecule gave a Kd of 3130 nM. The “primary binding site on HSA” value in assay [4] was “site I”. In addition, in assay [5] (298 K), the “∆G” value was -30.07 kJ/mol and the dissociation constant Kd was 4.9 µM. The Kq in assay [5] (setting [10]) is 0.2135 10^14 M^−1·s^−1. For the same molecule, in assay [5] (303 K), the “∆G” value is -29.64 kJ/mol, the Ksv was 1.296 10^5 M^−1 and the Kd was 9.08 µM. The Kq in assay [5] (setting [11]) is on record as 0.2083 10^14 M^−1·s^−1. Also, in assay [5] (310 K), the “∆G” value was -29.05 kJ/mol, the Ksv was 1.289 10^5 M^−1 and binding was characterised by a dissociation constant (Kd) of 11.9 µM. Further, in assay [5] (setting [12]), the Kq is given as 0.2073 10^14 M^−1·s^−1. Further, in assay [5] (setting [13]), the Kq entry is on record as “greater than 2.0 × 10^10 M^−1·s^−1”. Moreover, in assay [5], the “∆H” value was -55.35 kJ/mol; the “∆S” value is given as −84.86 J·moL^−1·K^−1; the fluorescence quenching mechanism entry is “mixed quenching mechanism”; the main binding forces entry is “hydrogen bonds and van der Waals forces”. Also, in assay [6], the “Peak 1 ∆λ” value is 61 nm, the “Peak 2 ∆λ” value came to 108 nm, the “Peak 2 λex/λem” value is given as 226/334 and the “Peak 1 λex/λem” value is 279/340. In assay [6], the “Peak 1 F” value stood at 323.4, the “Peak 2 F” value came out at 692.6 and the “change of Stokes shift of peak 2” value came to 1 nm.
